Measured values: paper PMC12472391, “Borylated Five-Membered Ring Iminosugars: Synthesis, Spectroscopic Analysis, and Biological Evaluation for Glycosidase Inhibition and Anticancer Properties for Application in Boron Neutron Capture Therapy (BNCT)—Part 1” (Pharmaceuticals, 2025)

Experiments:
[1] = Appearance: 1 mL of water added to 1 mg of solid, and mixed; type: physicochemical
[2] = system: β-D-glucosidase (almond); test: Glycosidase inhibition, Table 7; type: biochemical; conditions: 1 mg/mL aqueous solution added, 27 °C, run in water
Protocol: (§1) All enzymes and para-nitrophenyl substrates were purchased from Sigma. Enzymes were assayed at 27 °C in citric acid (0.1M)/disodium hydrogen phosphate (0.2 M) buffers at the optimum pH for the enzyme. The incubation mixture consisted of […] enzyme solution, […] of 1 mg/mL aqueous solution of extract, and […] of the appropriate 5 mM para-nitrophenyl substrate made up in buffer at the optimum pH for the enzyme. The reactions were stopped by the addition of […] 0.4 M glycine (pH 10.4) during the exponential phase of the reaction, which had been determined at the beginning using uninhibited assays in which water replaced the inhibitor. Final absorbances were read at 405 nm using a Versamax microplate reader (Molecular Devices). Assays were carried out in triplicate, and the values given are the means of the three replicates per assay. All reactions run in water.

[3] = system: β-D-glucuronidase (bovine liver); test: Glycosidase inhibition, Table 7; type: biochemical; conditions: 1 mg/mL aqueous solution added, 27 °C, run in water
Protocol: as §1

[4] = molecular target: T1, α-D-glucosidase (yeast) (Saccharomyces cerevisiae, UniProt P53341); test: Glycosidase inhibition, Table 7; type: biochemical; conditions: 1 mg/mL aqueous solution added, 27 °C, run in water; for inhibition at 1000 µg/mL (stock): read-out: α-D-Glucosidase Yeast, percentage inhibition
T1 construct: purchased Sigma
Protocol: as §1

[5] = system: A2780 ovarian carcinoma cells; test: Cancer screening, MTT growth inhibition; type: cell-based; conditions: 72-h exposure; for inhibition at 25 µM: Homo sapiens, A2780, 25 µM, read-out: A2780 Ovarian Carcinoma, Percentage (%) Cell Growth Inhibition in response to 25 µM of Drug
Protocol: (§2) Two assays were run: the dose screen to ascertain cell growth inhibition in response to 25 µM of drug (on a blue background) and the dose response (GI50) (on a green background). For a discussion of BNCT as a radiotherapeutic modality, a rationalisation is provided here.
(§3) All test agents were prepared as stock solutions (20 mM) in dimethyl sulfoxide (DMSO) and stored at −20 °C. Cell lines used in the study included HT29, (colorectal carcinoma); U87, SJ-G2, (glioblastoma); MCF-7, (breast carcinoma); A2780 (ovarian carcinoma); H460 (lung carcinoma); A431 (skin carcinoma); Du145 (prostate carcinoma); BE2-C (neuroblastoma) and MiaPaCa-2 (pancreatic carcinoma); together with the one non-tumour derived normal breast cell line (MCF10A). All cell lines were incubated in a humidified atmosphere 5% CO2 at 37 °C. The cancer cell lines were maintained in Dulbecco’s modified Eagle’s medium (DMEM; Sigma, Australia) supplemented with foetal bovine serum (10%), sodium pyruvate (10 mM), penicillin (100 IUmL^−1), streptomycin (100 µg mL^−1), and L-glutamine (2 mM).
(§4) Growth inhibition was determined by plating cells in duplicate in medium (100 µL) at a density of 2500–4000 cells per well in 96-well plates. On day 0 (24 h after plating), when the cells are in logarithmic growth, medium (100 µL) with or without the test agent was added to each well. After a 72-h drug exposure, growth inhibitory effects were evaluated using the MTT (3-(4,5-dimethyltiazol-2-yl)-2,5-diphenyltetrazolium bromide) assay and absorbance read at 540 nm. The percentage growth inhibition was calculated at a fixed concentration of 25 µM, based on the difference between the optical density values on day 0 and those at the end of drug exposure. Each data point is the mean ± the standard error of the mean (SEM) calculated from three replicates, which were performed on separate occasions and separate cell line passages.

[6] = system: U87 glioblastoma cells; test: Cancer screening, MTT growth inhibition; type: cell-based; conditions: 72-h exposure; for inhibition at 25 µM: read-out: U87 Glioblastoma, Percentage (%) Cell Growth Inhibition in response to 25 µM of Drug
Protocol: as §2, §3, §4

[7] = system: MCF-7 breast carcinoma cells; test: Cancer screening, MTT growth inhibition; type: cell-based; conditions: for inhibition at 25 µM: Homo sapiens, MCF7, 72-h exposure, read-out: MCF-7 Breast Carcinoma, Percentage (%) Cell Growth Inhibition in response to 25 µM of Drug; for MCF-7 Breast Carcinoma, Percentage (%) Cell Growth Inhibition in response to 25 µM of Drug: 72-h exposure
Protocol: as §2, §3, §4

[8] = system: MIA-Pa-Ca2 pancreatic carcinoma cells; test: Cancer screening, MTT growth inhibition; type: cell-based; conditions: 72-h exposure; for inhibition at 25 µM: Homo sapiens, MIA PaCa-2, 25 µM, read-out: MIA-Pa-Ca2 Pancreatic Carcinoma, Percentage (%) Cell Growth Inhibition in response to 25 µM of Drug
Protocol: as §2, §3, §4

[9] = system: BE2-C neuroblastoma cells; test: Cancer screening, MTT growth inhibition; type: cell-based; conditions: 72-h exposure; for inhibition at 25 µM: Homo sapiens, BE(2)-C, read-out: BE2-C Neuroblastoma, Percentage (%) Cell Growth Inhibition in response to 25 µM of Drug
Protocol: as §2, §3, §4

[10] = system: MCF10A normal breast cells; test: Cancer screening, MTT growth inhibition; type: cell-based; conditions: 25 µM, 72-h exposure; for inhibition at 25 µM: Homo sapiens, MCF-10A, read-out: MCF10A Breast (Normal), Percentage (%) Cell Growth Inhibition in response to 25 µM of Drug
Protocol: as §2, §3
The non-cancer MCF10A cell line was maintained in DMEM/F12 (1:1) cell culture media, 5% heat inactivated horse serum, supplemented with penicillin (50 IUmL^−1), streptomycin (50 µg mL^−1), HEPES (20 mM), L-glutamine (2 mM), epidermal growth factor (20 ng mL^−1), hydrocortisone (500 ng mL^−1), cholera toxin (100 ng mL^−1), and insulin (10 mg mL^−1).
as §4

T1 sequence (P53341 whole entry): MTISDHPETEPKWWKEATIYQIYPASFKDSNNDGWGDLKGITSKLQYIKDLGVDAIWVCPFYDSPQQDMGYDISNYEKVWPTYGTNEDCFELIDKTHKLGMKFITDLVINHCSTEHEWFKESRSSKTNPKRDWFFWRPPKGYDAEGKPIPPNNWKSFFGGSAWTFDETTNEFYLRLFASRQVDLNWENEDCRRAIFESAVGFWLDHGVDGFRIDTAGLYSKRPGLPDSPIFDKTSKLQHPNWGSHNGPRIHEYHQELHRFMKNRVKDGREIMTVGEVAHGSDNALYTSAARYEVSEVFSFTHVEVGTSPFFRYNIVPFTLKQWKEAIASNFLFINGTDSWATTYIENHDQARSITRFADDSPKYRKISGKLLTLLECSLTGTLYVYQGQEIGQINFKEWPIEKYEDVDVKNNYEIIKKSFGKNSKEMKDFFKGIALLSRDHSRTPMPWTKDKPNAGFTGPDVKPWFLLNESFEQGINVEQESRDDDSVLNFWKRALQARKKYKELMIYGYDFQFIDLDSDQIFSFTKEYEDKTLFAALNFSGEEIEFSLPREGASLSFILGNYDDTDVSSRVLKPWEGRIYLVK

Compound	Appearance [1]	β-D-Glucosidase Almond, percentage inhibition [2] [%]	β-D-Glucuronidase Bovine Liver, percentage inhibition [3] [%]	inhibition at 1000 µg/mL (stock) [4] [%]	inhibition at 25 µM [5] [%]	inhibition at 25 µM [6] [%]	inhibition at 25 µM [7] [%]	inhibition at 25 µM [8] [%]	inhibition at 25 µM [9] [%]	inhibition at 25 µM [10] [%]	α-D-Glucosidase Yeast, percentage inhibition [4] [%]	A2780 Ovarian Carcinoma, Percentage (%) Cell Growth Inhibition in response to 25 µM of Drug [5]	U87 Glioblastoma, Percentage (%) Cell Growth Inhibition in response to 25 µM of Drug [6]	MCF-7 Breast Carcinoma, Percentage (%) Cell Growth Inhibition in response to 25 µM of Drug [7]	MIA-Pa-Ca2 Pancreatic Carcinoma, Percentage (%) Cell Growth Inhibition in response to 25 µM of Drug [8]	BE2-C Neuroblastoma, Percentage (%) Cell Growth Inhibition in response to 25 µM of Drug [9]	MCF10A Breast (Normal), Percentage (%) Cell Growth Inhibition in response to 25 µM of Drug [10]
OC1O[C@@H]2[C@H]([C@H]1O)N(Cc1ccccc1)C[C@H]2O (stereo partly drawn) [Compound 4, N-Benzyl-3,6-dideoxy-3,6-imino-D-gulofuranose]	In solution	58.1	−4.3	-79	15	8	9	8	12	14							
N[C@@H](Cc1ccc(B(O)O)cc1)C(=O)O [^10B-BPA, reference compound]	Some in solution with undissolved sediment	3	−1								3.4	* 8 ± 4%	* <0%	* 1 ± 3%	* 11 ± 3%	* 10 ± 6%	* <0%
borocaptate sodium [BSH, reference compound]	In solution	47.3	31.6								59	* 2 ± 5%	* <0%	* 15 ± 3%	* 2 ± 6%	* 10 ± 6%	* 8 ± 3%
N[C@@H](Cc1ccc(B(O)O)cc1)C(=O)O [BPA, 4-borono-L-phenylalanine, reference compound]	Some in solution with undissolved sediment	3.9	−0.7	2.9	4	< 0	< 0	3	13	4							
